The target in assay [1] is T1, Hepatocyte growth factor receptor (Homo sapiens, UniProt P08581). The assay is described as follows: Inhibition of purified recombinant c-MET (unknown origin) using poly (Glu, Tyr) substrate after 60 mins by ELISA. A general note: In an ELISA, binding on a coated surface is turned into a signal by an enzyme label.
Assay [2] can be described thus: Antiproliferative activity against human EBC1 cells after 72 hrs. The settings on record: EBC-1, 72 h.
Assay [3] concerns the target Epidermal growth factor receptor (Homo sapiens) (UniProt P00533). The assay is described as follows: Inhibition of purified EGFR (unknown origin) at 1 uM after 60 mins by ELISA.
Assay [4] has as its target Vascular endothelial growth factor receptor 1 (Homo sapiens) (UniProt P17948). The assay is described as follows: Inhibition of purified Flt1 (unknown origin) at 1 uM after 60 mins by ELISA.
The target in assay [5] is Receptor tyrosine-protein kinase erbB-4 (Homo sapiens) (UniProt Q15303). The assay is described as follows: Inhibition of purified ErbB4 (unknown origin) at 1 uM after 60 mins by ELISA.
Assay [6] deals with Insulin-like growth factor 1 receptor (Homo sapiens) (UniProt P08069). The assay is described as follows: Inhibition of purified IGF1R (unknown origin) at 1 uM after 60 mins by ELISA.
For assay [7], the target named is Proto-oncogene tyrosine-protein kinase receptor Ret (Homo sapiens) (UniProt P07949). The assay is described as follows: Inhibition of purified RET (unknown origin) at 1 uM after 60 mins by ELISA.
Assay [8] has as its target Fibroblast growth factor receptor 1 (Homo sapiens) (UniProt P11362). The assay is described as follows: Inhibition of purified FGFR1 (unknown origin) at 1 uM after 60 mins by ELISA.
Assay [9] addresses Receptor tyrosine-protein kinase erbB-2 (Homo sapiens) (UniProt P04626). The assay is described as follows: Inhibition of purified ErbB2 (unknown origin) at 1 uM after 60 mins by ELISA.
For assay [10], the target named is T1, Hepatocyte growth factor receptor. The assay is described as follows: Inhibition of purified c-MET (unknown origin) at 0.1 uM after 60 mins by ELISA.
Assay [11] concerns the target Platelet-derived growth factor receptor alpha (Homo sapiens) (UniProt P16234). The assay is described as follows: Inhibition of purified PDGFRalpha (unknown origin) at 1 uM after 60 mins by ELISA.
Assay [12] has as its target T1, Hepatocyte growth factor receptor. The assay is described as follows: Inhibition of purified c-MET (unknown origin) at 1 uM after 60 mins by ELISA.
Assay [13] concerns the target Proto-oncogene tyrosine-protein kinase Src (Homo sapiens) (UniProt P12931). The assay is described as follows: Inhibition of purified c-Src (unknown origin) at 1 uM after 60 mins by ELISA.
Assay [14] deals with T1, Hepatocyte growth factor receptor. The assay is described as follows: Inhibition of purified c-MET (unknown origin) at 0.01 uM after 60 mins by ELISA.
The target in assay [15] is Tyrosine-protein kinase ABL1 (Homo sapiens) (UniProt P00519). The assay is described as follows: Inhibition of purified ABL (unknown origin) at 1 uM after 60 mins by ELISA.
For assay [16], the target named is T2, Vascular endothelial growth factor receptor 2 (Homo sapiens, UniProt P35968). The assay is described as follows: Inhibition of purified VEGFR2 (unknown origin) at 0.1 uM after 60 mins by ELISA.
Assay [17] concerns the target Ephrin type-A receptor 2 (Homo sapiens) (UniProt P29317). The assay is described as follows: Inhibition of purified EPH-A2 (unknown origin) at 1 uM after 60 mins by ELISA.
For assay [18], the target named is ALK tyrosine kinase receptor (Homo sapiens) (UniProt Q9UM73). The assay is described as follows: Inhibition of purified ALK (unknown origin) at 1 uM after 60 mins by ELISA.
Assay [19] concerns the target T2, Vascular endothelial growth factor receptor 2. The assay is described as follows: Inhibition of purified VEGFR2 (unknown origin) at 1 uM after 60 mins by ELISA.
Assay [20] has the same target. The assay is described as follows: Inhibition of purified VEGFR2 (unknown origin) at 0.01 uM after 60 mins by ELISA.
Assay [21] deals with Platelet-derived growth factor receptor beta (Homo sapiens) (UniProt P09619). The assay is described as follows: Inhibition of purified PDGFRbeta (unknown origin) at 1 uM after 60 mins by ELISA.
The target in assay [22] is ALK tyrosine kinase receptor (Homo sapiens) (UniProt Q9UM73). The assay is described as follows: Inhibition of purified ALK (unknown origin) at 0.1 uM after 60 mins by ELISA.
Assay [23] concerns the target T2, Vascular endothelial growth factor receptor 2. The assay is described as follows: Inhibition of purified VEGFR2 (unknown origin) after 60 mins by ELISA.

What is called IC50 is the concentration at which inhibition is half-maximal. For orientation: inhibition means the change of the read-out against control, counted positive when it falls.

Take `Nc1n[nH]c2cccc(-c3ccc(NC(=O)C4(C(=O)Nc5ccc(F)cc5)CC4)c4ccccc34)c12`: the IC50 in [1] was greater than 1000 nM.
Regarding `CN1CCN(Cc2cc(NC(=O)C3(C(=O)Nc4ccc(-c5cccc6[nH]nc(N)c56)cc4)CC3)ccc2Cl)CC1`, the IC50 in assay [2] is greater than 10000 nM.
`Cc1ccc(NC(=O)C2(C(=O)Nc3ccc(-c4cccc5onc(N)c45)cc3)CC2)cc1` gave a concentration for half-maximal inhibition (IC50) in [2] of 6300 nM.
With `COc1cc(NC(=O)C2(C(=O)Nc3ccc(-c4cccc5onc(N)c45)cc3)CC2)cc(OC)c1OC`, the IC50 in [1] was greater than 1000 nM.
Turning to `CC(=O)c1ccc(-c2ccc(NC(=O)C3(C(=O)Nc4ccc(-c5cccc6onc(N)c56)cc4)CC3)cc2)s1`, the concentration for half-maximal inhibition (IC50) in [1] was greater than 1000 nM.
As to `Nc1noc2cccc(-c3ccc(NC(=O)CC(=O)Nc4ccc(F)cc4)cc3)c12`, the concentration for half-maximal inhibition (IC50) in assay [2] was greater than 10000 nM.
`Nc1n[nH]c2cccc(-c3ccc(NC(=O)C4(C(=O)Nc5ccc(F)cc5)CC4)cc3)c12` yielded a half-inhibitory concentration (IC50) in [2] of 820 nM.
As to `CC(C)C(C(=O)Nc1ccc(F)cc1)C(=O)Nc1ccc(-c2cccc3onc(N)c23)cc1` (stereo unspecified), the IC50 in assay [1] is greater than 1000 nM.
In assay [2], `Cc1ccc(NC(=O)C2(C(=O)Nc3ccc(-c4cccc5[nH]nc(N)c45)c(F)c3)CC2)cc1` gave an IC50 of 910 nM.
As to `Nc1noc2cccc(-c3ccc(NC(=O)C4(C(=O)Nc5ccc(F)c(F)c5)CC4)cc3)c12`, in assay [2], the half-inhibitory concentration (IC50) was greater than 10000 nM.
As for `Nc1noc2cccc(-c3ccc(NC(=O)C4(C(=O)Nc5ccc(-c6cnn(C7CCOCC7)c6)cc5)CC4)cc3)c12`, the half-inhibitory concentration (IC50) in [1] is greater than 1000 nM.
`Cc1cc(NC(=O)C2(C(=O)Nc3ccc(F)cc3)CC2)ccc1-c1cccc2[nH]nc(N)c12`: the midpoint of inhibition in assay [2], the IC50, lay at 1000 nM.
Regarding `COc1cc(NC(=O)C2(C(=O)Nc3ccc(F)cc3)CC2)ccc1-c1cccc2[nH]nc(N)c12`, the half-inhibitory concentration (IC50) in assay [1] is greater than 1000 nM.
Same read-out and setting: in the case of `Cn1cc(-c2ccc(NC(=O)C3(C(=O)Nc4ccc(-c5cccc6onc(N)c56)cc4)CC3)cc2)cn1` it was greater than 1000 nM.
For `Nc1n[nH]c2cccc(-c3ccc(NC(=O)C4(C(=O)Nc5ccc(F)cc5)CC4)cc3F)c12`, the inhibition in [3] was found to be 2.5%; in assay [4] it was 40.8%; in [5], 3%; in [6], 45.3%; in [7], 66.1%; in [8], 21.5%. Besides, the inhibition in assay [9] was 0%; in [10], 100%; in [11], 62.5%; in assay [12], 100%; in [13], 11.8%; in [14], 69.7%. Further, the inhibition in assay [15] worked out at 9.8%; in [16], 89.9%; in assay [17], 38.4%; in assay [18], 64.9%; in [19], 100%; in assay [20], 45.8%. Moreover, the results for the inhibition in assay [21] and in assay [22] were 59.3% and 36.2%, respectively. Further, the IC50 was 1.8 nM in assay [1] and 180 nM in assay [2].
Consider `Nc1n[nH]c2cccc(-c3ccc(NC(=O)C4(C(=O)Nc5ccc(F)cc5F)CC4)cc3)c12`, for which the IC50 in assay [2] stood at 990 nM.
`CC(C)(C(=O)Nc1ccc(F)cc1)C(=O)Nc1ccc(-c2cccc3onc(N)c23)cc1`: in assay [1], the IC50 is greater than 1000 nM.
In the case of `Nc1n[nH]c2cccc(-c3ccc(NC(=O)C4(C(=O)Nc5ccc(F)cc5)CC4)c(F)c3)c12`, in [2], half-maximal inhibition (IC50) required 510 nM.
The same measure, in the same setting: under `Nc1noc2cccc(-c3ccc(NC(=O)C4(C(=O)Nc5ccc(F)cc5)CC4)cc3F)c12` stands 900 nM.
As for `Nc1noc2cccc(-c3ccc(NC(=O)C4(C(=O)Nc5cccc(F)c5)CC4)cc3)c12`, the half-inhibitory concentration (IC50) in [1] is greater than 1000 nM.
Same read-out and setting: in the case of `CN(C)Cc1cc(NC(=O)C2(C(=O)Nc3ccc(F)cc3)CC2)ccc1-c1cccc2[nH]nc(N)c12` it was greater than 1000 nM.
`Nc1n[nH]c2cccc(-c3ccc(NC(=O)C4(C(=O)Nc5ccc(Cl)cc5)CC4)cc3F)c12` yielded a concentration for half-maximal inhibition (IC50) in [2] of 990 nM.
On to `Cn1nccc1-c1ccc(NC(=O)C2(C(=O)Nc3ccc(-c4cccc5onc(N)c45)cc3)CC2)cc1`, for which, in [1], the 50% inhibitory concentration (IC50) was greater than 1000 nM.
For the molecule `Nc1noc2cccc(-c3ccc(NC(=O)C4(C(=O)Nc5ccc(F)cc5)CC4)cc3)c12`, the 50% inhibitory concentration (IC50) in assay [23] was greater than 1000 nM; in assay [2] it was 1200 nM.
With `CN1CCN(c2ccc(NC(=O)C3(C(=O)Nc4ccc(-c5cccc6onc(N)c56)cc4)CC3)cc2F)CC1`, the half-inhibitory concentration (IC50) in assay [1] is greater than 1000 nM.
Take `C[C@@H](Oc1cc(-c2cnn(C3CCNCC3)c2)cnc1N)c1c(Cl)ccc(F)c1Cl` [CRIZOTINIB]: in assay [2], 21 nM corresponded to half-maximal inhibition (IC50).
With `Nc1noc2cccc(-c3ccc(NC(=O)C4(C(=O)Nc5ccc(-c6cnn(C7CCNCC7)c6)cc5)CC4)cc3)c12`, the half-maximal inhibitory concentration (IC50) in assay [1] is greater than 1000 nM.
The molecule `Nc1noc2cccc(-c3ccc(NC(=O)C4(C(=O)Nc5ccc(Cl)cc5)CC4)cc3)c12` gave an IC50 in [2] of 6700 nM.
On the same count and under the same terms, in the case of `Nc1noc2cccc(-c3ccc(NC(=O)C4(C(=O)Nc5ccc(F)cc5F)CC4)cc3)c12` it was greater than 10000 nM.

Source of the values: ChEMBL document CHEMBL3392979, “Discovery and SAR study of c-Met kinase inhibitors bearing an 3-amino-benzo[d]isoxazole or 3-aminoindazole scaffold” (Bioorg Med Chem, 2015).
